The record followed here is patent publication US12435060B2, “Acylamino bridged heterocyclic compound, and composition and application thereof” (BEIJING SCITECH-MQ PHARMACEUTICALS LIMITED, priority 2019, dated 2025).

This test has as its system HT29 cells. The test can be described thus: Inhibition of cell necrosis (CCK8 method), induced programmed necrosis of HT29 cells. The class given is cell-based. To be noted: Homo sapiens, HT-29; rescue from necrosis induced by TNF-α 20 ng/mL, AT-406 1 μM, Z-VAD-FMK 20 μM; 16-20 hours; CCK-8, OD 450 nm. In a few lines: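 Rescue from programmed necrosis was scored by CCK-8 absorbance at 450 nm after 16-20 h of TNF-α (20 ng/mL), AT-406 (1 μM) and Z-VAD-FMK (20 μM) at 37 °C, 5% CO2. HT29 cells had received compound 30 min earlier across nine 4-fold dilutions (top 25000 nM final). IC50 came from % inhibition relative to uninduced and induced-only wells.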
Background: Tetrazolium assays rely on reduction of a dye to a coloured formazan, in cell work by metabolically active cells.
For orientation: IC50 means the concentration needed to halve the response being measured. As for `O=C(Nc1cc(-c2cc(OCCC3CCOCC3)ccc2C(F)(F)F)ccn1)c1nnc(CC2CCCCC2)[nH]1` [Example 310, 5-(cyclohexylmethyl)-N-(4-(5-(2-(tetrahydro-2H-pyran-4-yl)ethoxy)-2-(trifluoromethyl)phenyl)pyridin-2-yl)-4H-1,2,4-triazole-3-carboxamide], the IC50 is at most 0.1 µM.

In turn, `COc1ccc(Cl)cc1-c1ccnc(NC(=O)c2nnc(Cc3ccccc3)[nH]2)c1` [Example 15, 5-benzyl-N-(4-(5-chloro-2-methoxyphenyl)pyridin-2-yl)-4H-1,2,4-triazole-3-carboxamide] came in with an IC50 of 1 to 10 µM. As for `Cc1ccc(OCC2COC2)cc1-c1ccnc(NC(=O)c2nnc(Cc3ccccc3)[nH]2)c1` [Example 66, 5-benzyl-N-(4-(2-methyl-5-(oxetan-3-ylmethoxy)phenyl)pyridin-2-yl)-4H-1,2,4-triazole-3-carboxamide], the IC50 was at most 0.1 µM. Regarding `Cc1ccc(OCC2CCOCC2)cc1-c1cc(NC(=O)c2nnc(Cc3ccccc3F)[nH]2)ncc1Cl` [Example 249, N-(5-chloro-4-(2-methyl-5-((tetrahydro-2H-pyran-4-yl)methoxy)phenyl)pyridin-2-yl)-5-(2-fluorobenzyl)-4H-1,2,4-triazole-3-carboxamide], the IC50 was in the range of 0.1 to 1 µM.

The compound `COCCCOc1ccc(C)c(-c2ccnc(NC(=O)c3nnc(Cc4ccccc4)s3)c2)c1` [Example 146, 5-benzyl-N-(4-(5-(3-methoxypropoxy)-2-methylphenyl)pyridin-2-yl)-1,3,4-thiodiazol-2-carboxamide] showed an IC50 of 1 to 10 µM.

For the compound `Cc1ccc(OCCC2CCOCC2)cc1-c1cc(NC(=O)c2nnc(CC3CCCCC3)[nH]2)ncc1F` [Example 499, N-(5-fluoro-4-(2-methyl-5-(2-(tetrahydro-2H-pyran-4-yl)ethoxy)phenyl)pyridin-2-yl)-5-(cyclohexylmethyl)-4H-1,2,4-triazole-3-carboxamide], the IC50 was at most 0.1 µM. Take `Cc1ccc(OCC2CCCCO2)cc1-c1ccnc(NC(=O)c2nnc(Cc3ccccc3)[nH]2)c1` (stereo not drawn) [Example 123, 5-benzyl-N-(4-(2-methyl-5-((tetrahydro-2H-pyran-2-yl)methoxy)phenyl)pyridin-2-yl)-4H-1,2,4-triazole-3-carboxamide]: the IC50 was at most 0.1 µM. The same measure for `Cc1ccc(C(C)(C)O)cc1-c1ccnc(NC(=O)c2nnc(Cc3ccccc3)[nH]2)c1` [Example 199, 5-benzyl-N-(4-(5-(2-hydroxypropan-2-yl)-2-methylphenyl)pyridin-2-yl)-4H-1,2,4-triazole-3-carboxamide]: 1 to 10 µM. Take `O=C(Nc1cc(-c2cc(OCCCCCO)ccc2C(F)(F)F)ccn1)c1nnc(CC2CCCCC2)[nH]1` [Example 278, 5-(cyclohexylmethyl)-N-(4-(5-((5-hydroxypentyl)oxy)-2-(trifluoromethyl)phenyl)pyridin-2-yl)-4H-1,2,4-triazole-3-carboxamide]: the IC50 was at most 0.1 µM. `CCCCOc1ccc(C)c(-c2ccnc(NC(=O)c3nnc(Cc4ccccc4)[nH]3)c2)c1` [Example 198, 5-benzyl-N-(4-(5-butoxy-2-methylphenyl)pyridin-2-yl)-4H-1,2,4-triazole-3-carboxamide]: the concentration for half-maximal inhibition (IC50) was 0.1 to 1 µM. The value for `CCOc1ccc(C)c(-c2ccnc(NC(=O)c3nnc(Cc4ccccc4)[nH]3)c2)c1` [Example 108, 5-benzyl-N-(4-(5-ethoxy-2-methylphenyl)pyridin-2-yl)-4H-1,2,4-triazole-3-carboxamide] was 1 to 10 µM; that for `Cc1ccc(OCCCC(C)(C)O)cc1-c1cc(NC(=O)c2nnc(Cc3cc(F)ccc3F)[nH]2)ncn1` [Example 436, 5-(2,5-difluorobenzyl)-N-(6-(5-((4-hydroxy-4-methylpentyl)oxy)-2-methylphenyl)pyrimidin-4-yl)-4H-1,2,4-triazole-3-carboxamide] was at most 0.1 µM. As to `Cc1ccc(OCCCC(C)(C)O)cc1-c1ccnc(NC(=O)c2nnc(CN3CCOCC3)[nH]2)c1` [Example 181, N-(4-(5-((4-hydroxy-4-methylpentyl)oxy)-2-methylphenyl)pyridin-2-yl)-5-(morpholinomethyl)-4H-1,2,4-triazole-3-carboxamide], the IC50 was 1 to 10 µM.

With `Cc1ccc(OCCCC(C)(C)O)cc1-c1ccnc(NC(=O)c2nnc(Cc3cc(F)cc(F)c3)[nH]2)c1` [Example 200, 5-(3,5-difluorobenzyl)-N-(4-(5-((4-hydroxy-4-methylpentyl)oxy)-2-methylphenyl)pyridin-2-yl)-4H-1,2,4-triazole-3-carboxamide], the IC50 was at most 0.1 µM. The same measure for `Cc1ccc(OCCC2CCOCC2)cc1-c1cc(NC(=O)c2nnc(Cc3ccccc3F)[nH]2)ncc1C` [Example 253, 5-(2-fluorobenzyl)-N-(5-methyl-4-(2-methyl-5-(2-(tetrahydro-2H-pyran-4-yl)ethoxy)phenyl)pyridin-2-yl)-4H-1,2,4-triazole-3-carboxamide]: 0.1 to 1 µM. The compound `CC(C)(O)CCCOc1ccc(C(F)(F)F)c(-c2cc(NC(=O)c3nnc(Cc4ccccc4)[nH]3)ncn2)c1` [Example 450, 5-benzyl-N-(6-(5-((4-hydroxy-4-methylpentyl)oxy)-2-(trifluoromethyl)phenyl)pyrimidin-4-yl)-4H-1,2,4-triazole-3-carboxamide] yielded a 50% inhibitory concentration (IC50) of at most 0.1 µM. The same measure for `CC(C)OCCOc1ccc(C(F)(F)F)c(-c2ccnc(NC(=O)c3nnc(Cc4ccccc4F)[nH]3)c2)c1` [Example 288, 5-(2-fluorobenzyl)-N-(4-(5-(2-isopropoxyethoxy)-2-(trifluoromethyl)phenyl)pyridin-2-yl)-4H-1,2,4-triazole-3-carboxamide]: at most 0.1 µM.

Compound `CC(C)(O)CCCOc1ccc(Cl)c(-c2cc(NC(=O)c3nnc(Cc4ccccc4F)[nH]3)ncn2)c1` [Example 463, 5-(2-fluorobenzyl)-N-(6-(2-chloro-5-((4-hydroxy-4-methylpentyl)oxy)phenyl)pyrimidin-4-yl)-4H-1,2,4-triazole-3-carboxamide] gave an IC50 of at most 0.1 µM.

Consider `O=C(Nc1cc(-c2cc(OCCC3CCOCC3)ccc2Cl)ccn1)c1nnc(Cc2ccccc2)[nH]1` [Example 403, 5-benzyl-N-(4-(2-chloro-5-(2-(tetrahydro-2H-pyran-4-yl)ethoxy)phenyl)pyridin-2-yl)-4H-1,2,4-triazole-3-carboxamide], for which the IC50 was at most 0.1 µM. The value for `COCCCOc1ccc(C)c(-c2ccnc(NC(=O)c3nnc(CC4CCCCC4)[nH]3)c2)c1` [Example 145, 5-(cyclohexylmethyl)-N-(4-(5-(3-methoxypropoxy)-2-methylphenyl)pyridin-2-yl)-4H-1,2,4-triazole-3-carboxamide] was at most 0.1 µM; that for `CCOCCN(C)c1ccc(C)c(-c2ccnc(NC(=O)c3nnc(Cc4ccccc4)[nH]3)c2)c1` [Example 56, 5-benzyl-N-(4-(5-((2-ethoxyethyl)(methyl)amino)-2-methylphenyl)pyridin-2-yl)-4H-1,2,4-triazole-3-carboxamide] was 0.1 to 1 µM; that for `CC(C)(O)CCCOc1ccc(Cl)c(-c2ccnc(NC(=O)c3nnc(Cc4cc(C5CC5)ccc4F)[nH]3)c2)c1` [Example 503, N-(4-(2-chloro-5-((4-hydroxy-4-methylpentyl)oxy)phenyl)pyridin-2-yl)-5-(5-cyclopropyl-2-fluorobenzyl)-4H-1,2,4-triazole-3-carboxamide] was 1 to 10 µM. The value for `Cc1c(OCCCCO)cccc1-c1ccnc(NC(=O)c2nnc(Cc3ccccc3)[nH]2)c1` [Example 99, 5-benzyl-N-(4-(3-(4-hydroxybutoxy)-2-methylphenyl)pyridin-2-yl)-4H-1,2,4-triazole-3-carboxamide] was 0.1 to 1 µM; that for `Cc1ccc(OCCCC(C)(C)O)cc1-c1ccnc(NC(=O)c2nnc(Cc3ccc(F)c(Cl)c3)[nH]2)c1` [Example 206, 5-(3-chloro-4-fluorobenzyl)-N-(4-(5-((4-hydroxy-4-methylpentyl)oxy)-2-methylphenyl)pyridin-2-yl)-4H-1,2,4-triazole-3-carboxamide] was 0.1 to 1 µM; that for `O=C(Nc1cc(-c2cc(OCC3CCOCC3)ccc2F)c(Cl)cn1)c1nnc(Cc2ccccc2F)[nH]1` [Example 329, N-(5-chloro-4-(2-fluoro-5-((tetrahydro-2H-pyran-4-yl)methoxy)phenyl)pyridin-2-yl)-5-(2-fluorobenzyl)-4H-1,2,4-triazole-3-carboxamide] was 0.1 to 1 µM.

In turn, `CC(C)(O)CCCOc1ccc(C(F)(F)F)c(-c2cc(NC(=O)c3nnc(CC4CCCC4)[nH]3)ncn2)c1` [Example 452, 5-(cyclopentylmethyl)-N-(6-(5-((4-hydroxy-4-methylpentyl)oxy)-2-(trifluoromethyl)phenyl)pyrimidin-4-yl)-4H-1,2,4-triazole-3-carboxamide] had a half-inhibitory concentration (IC50) of at most 0.1 µM.

Turning to `O=C(Nc1cc(-c2cc(OCC3CCOCC3)ccc2C(F)(F)F)ncn1)c1nnc(Cc2ccccc2F)[nH]1` [Example 455, 5-(2-fluorobenzyl)-N-(6-(5-((tetrahydro-2H-pyran-4-yl)methoxy)-2-(trifluoromethyl)phenyl)pyrimidin-4-yl)-4H-1,2,4-triazole-3-carboxamide], the IC50 is at most 0.1 µM.

The compound `Cc1ccc(OCCC2CCCCCC2)cc1-c1ccnc(NC(=O)c2nnc(Cc3ccccc3)[nH]2)c1` [Example 225, 5-benzyl-N-(4-(5-(2-cycloheptylethoxy)-2-methylphenyl)pyridin-2-yl)-4H-1,2,4-triazole-3-carboxamide] registered an IC50 of at most 0.1 µM.

Turning to `CCn1nc(C)cc1-c1ccnc(NC(=O)c2nnc(Cc3ccccc3)[nH]2)c1` [Example 109, 5-benzyl-N-(4-(1-ethyl-3-methyl-1H-pyrazol-5-yl)pyridin-2-yl)-4H-1,2,4-triazole-3-carboxamide], the IC50 is 1 to 10 µM.

On to `Cc1cc(F)cc(Cc2nnc(C(=O)Nc3cc(-c4cc(OCCCC(C)(C)O)ccc4C)ccn3)[nH]2)c1` [Example 207, 5-(3-fluoro-5-methylbenzyl)-N-(4-(5-((4-hydroxy-4-methylpentyl)oxy)-2-methylphenyl)pyridin-2-yl)-4H-1,2,4-triazole-3-carboxamide], for which the IC50 fell in the range of 0.1 to 1 µM.
